According to patent US20110178104A1, “Anti-Heparin Compounds” (POLYMEDIX INC., priority 2010, published 2011):
Converted amounts (≈) assume the structure as drawn. “And” between values parts separate entries of the source, which are not always exact repeats. Identical values can stand only once.

Key:
[1] = in vitro; assay type: cell-based, human; settings: human, pH 7.4
Procedure, shortened: (§1)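 Test agent was serially diluted two-fold over 0.48–1000 µg/ml and incubated for 1 h at 37 °C with shaking, using erythrocytes from pooled human blood diluted in Tris-buffered saline pH 7.4 (0.22% stock). Hemolysis was measured as supernatant absorbance at 405 nm. A four-parameter logistic equation gave EC50, and melittin served as the positive control.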

[2] = tested on: isolated human erythrocytes; assay: cells; assay type: cell-based; settings: human RBC, 1 hour at 37° C.; for EC50: Homo sapiens, Erythrocyte, 1 h, read-out: Hemolysis EC50
Procedure, shortened: as §1

[3] = tested on: fondaparinux; assay: FXa amidolytic assay (Example 10), fondaparinux; settings: for EC50: read-out: Fondap FXa EC50, fondaparinux 0.02 μg/mL, human antithrombin, bovine Factor Xa
[4] = tested on: enoxaparin; assay: FXa amidolytic assay (Example 10), enoxaparin; settings: read-out: Enox FXa EC50; enoxaparin 0.1 ug/ml; human antithrombin, bovine Factor Xa
[5] = tested on: Unfractionated heparin; assay: aPTT clotting assay, UFH 0.4 U/mL in plasma (Example 10); assay type: biochemical; settings: unfractionated heparin 0.4 U/mL in plasma; aPTT clotting
Experimental: aPTT clotting Assay: Unfractionated heparin was mixed with plasma at a final concentration of 0.4 U/mL (or concentration which increases aPTT time to between 120 and 300 seconds). […] The ACL Elite Hemostasis analyzer (Beckman Coulter™) was used to add aPTT reagent (HemosIL SynthASil) to supplemented plasma. Clotting was initiated by addition of CaCl2 and time to clot was recorded.

[6] = tested on: tinzaparin; assay: FXa amidolytic assay (Example 10), tinzaparin; settings: read-out: Tinzap FXa EC50; tinzaparin 0.1 ug/ml; human antithrombin, bovine Factor Xa
[7] = Cytotoxicity colorimetric assay, NIH/3T3; assay type: cell-based, mouse; settings: mouse, NIH/3T3 cells, one hour in serum-free media
Experimental: (§2) This assay measures the bioreduction of a novel tetrazolium compound to a soluble formazan product by viable cells. HepG2 cells were seeded in 96 well plates at 3×10^4 cells/well in MEM medium with 10% fetal bovine serum (FBS) 24 hours prior to use. NIH/3T3 cells were seeded in 96 well plates at 2×10^4 cells/well in DMEM medium with 10% bovine calf serum (BCS) 24 hours prior to use. Cell monolayers were rinsed in serum-free media and incubated for one hour with test agent in serum-free media. After incubation, the media was replaced with serum supplemented media and live cells were measured using the Cell Titer 96 Aqueous […] Assay kit (Promega, Madison, Wis.). EC50 values were determined using a four parameter logistic equation: Y=Bottom+(Top-Bottom)/(1+10̂((LogEC50-X)*HillSlope)).

[8] = tested on: enoxaparin; assay: In vivo neutralization of enoxaparin in the rat; settings: compared with protamine
Experimental: Compounds were tested for their ability to neutralize enoxaparin coagulation inhibition in rats. Male Sprague-Dawley rats were used in this study (Charles River Laboratories). They were ten-weeks-old at the start of the study and their weights ranged from 319-362 g. Enoxaparin (2 mg/kg) was administered by IV injection to groups of six rats. After 3 min, saline, protamine or a test compound was administered by IV injection. Blood was collected before dosing with enoxaparin, and at 1, 3, 10, 30 and 60 min after dosing with the standard and test compounds. All treatments were dosed in a volume of 1 mL/kg. Blood was collected via the orbital sinus from three rats per group. At each time point, 1 mL of blood was collected from each animal into a single tube. The blood was analyzed using an AMEX Destiny Plus Coagulation Analyzer for activated partial thromboplastin time (APTT) and anti-Factor Xa (low-molecular weight).

[9] = tested on: UFH; assay: FXa amidolytic assay (Example 10), UFH; settings: read-out: Heparin FXa uM EC50; UFH 0.03 units/mL; human antithrombin, bovine Factor Xa
[10] = Cytotoxicity colorimetric assay, HepG2; assay type: cell-based, human; design: Cytotoxicity HepG2, percent printed in parentheses after the concentration: concentration or dose not given beside the values; settings: human, HepG2 cells, one hour in serum-free media
Experimental: as §2

[11] = tested on: NIH/3T3 cells; assay: Cytotoxicity colorimetric assay, NIH/3T3; assay type: cell-based, mouse; settings: for Cytotoxicity 3T3, percent printed in parentheses after the concentration: at the concentration given
Experimental: as §2

[12] = tested on: HepG2 cells; assay: Cytotoxicity colorimetric assay, HepG2; assay type: cell-based, human; design: Cytotoxicity HepG2, percent printed in parentheses after the concentration: concentration or dose not given beside the values; settings: for Cytotoxicity HepG2, percent printed in parentheses after the concentration: at the concentration given
Experimental: as §2

[13] = tested on: blood pressure; assay: Hemodynamic responses in the anesthetized rat; assay type: in vivo; settings: anesthetized rat, 8 or 16 mg/kg 10 minute IV infusion after heparin 50 U/kg
From the text: As a key safety issue for cationic compounds is reduction in blood pressure shortly after administration. To address this hemodynamic issue, a medicinal chemistry strategy with literature precedence of introducing carboxylic acid functionality was applied to the salicylamide series of compounds. […] Surgically prepared animals were purchased from Charles River Laboratories, Raleigh, N.C. Animals were anesthetized on the day of experiment with isoflurane (1.8-4%). Blood pressure and heart rate data were collected on a Grass Polygraph recorder. The test articles, vehicle or protamine dosing preparations were administered once to each rat by a 10 minute intravenous infusion three minutes following a single intravenous injection of heparin (50 U/kg). Each animal received a dose volume of 2.0 mL/kg. Blood pressure was recorded prior to treatment for approximately 1 minute and immediately following heparin, immediately following vehicle, test articles or protamine and at 5, 15, 30, and 60 minutes following dosing. The doses of test agent were either 8 mg/kg or 16 mg/kg. The differences in hemodynamic effect at 16 mg/kg were especially profound (FIG. 5).

[14] = tested on: fondaparinux; assay: In vivo neutralization of fondaparinux in the rat
Experimental: Compounds were selected to test fondaparinux neutralization in vivo. Rats were pre-treated with fondaparinux administered by IV injection at 0.5 mg/kg. The rats were then treated with a single IV injection of saline, protamine or the PMX compound. Blood was collected via the orbital sinus from three rats per group at the following time points: pre-dose, 1, 3, 10, 30 and 60 min. Plasma samples were prepared for analysis of anti-factor Xa activity using an AMEX Destiny Plus Coagulation Analyzer.

EC50 [3] | EC50 [4] | EC50 [5] | EC50 [6] | EC50 [9] [µM] | Compound | hemolysis at 1 h [1] [%] | EC50 [2] [µg/mL] | Potent LMWH-antagonists with superior anti-fondaparinux activity (summary) [3] | EC50 at 1 h [7] [µg/mL] | in vivo efficacy versus LMWH by anti-factor Xa activity (summary) [8] | EC50 at 1 h [10] [µg/mL] | Hemolysis EC50 [2] | Cytotoxicity 3T3, percent printed in parentheses after the concentration [11] [%] | Cytotoxicity HepG2, percent printed in parentheses after the concentration [12] [%] | Cytotoxicity 3T3 EC50 ([11]; one hour in serum-free media) [µg/mL] | Cytotoxicity HepG2 EC50 ([12]; one hour in serum-free media) [µg/mL] | hemodynamic response profile [13] | reduction of Factor Xa (anti-factor Xa) levels after fondaparinux ([14]; fondaparinux 0.5 mg/kg IV, test agent 2 and 5 mg/kg IV) | in vivo efficacy versus fondaparinux (summary) ([14]; in vivo)
161 nM | 155 nM | > 10000 nM | 184 nM |  | COc1ccc(NC(=O)[C@@H](CCCNC(=N)N)NC(=O)c2cc(NC(=O)[C@@H](CCCNC(=N)N)NC(=O)c3cc(NC(=O)[C@@H](CCCNC(=N)N)NC(=O)c4cc(NC(=O)[C@H](N)Cc5c[nH]c6ccccc56)ccc4OC)ccc3OC)ccc2OC)cc1C(=O)N[C@H](Cc1c[nH]c2ccccc12)C(=O)O [Compound 331] | 50 | ~100 (≈ 68.7 µM) |  |  |  |  |  |  |  |  |  |  |  | 
1060 nM | 67 nM | 1030 nM | 113 nM | 0.134 | COc1cc(OC)c(C(=O)N[C@H]2CC[C@@H](NC(=O)c3cc(C(=O)NCCN(C)C)c(OCCCCCN)cc3OCCCCCN)CC2)cc1C(=O)N[C@H]1CC[C@@H](NC(=O)c2cc(C(=O)NCCN(C)C)c(OCCCCCN)cc2OCCCCCN)CC1 [Compound 363] |  | > 1000 | superior anti-fondaparinux activity | 500 (≈ 397 µM) | superior to protamine | > 1000 |  |  |  |  |  |  |  | 
402 nM | 114 nM | 1980 nM | 108 nM |  | COc1ccc(NC(=O)[C@H](CCCNC(=N)N)NC(=O)c2cc(NC(=O)[C@H](CCCNC(=N)N)NC(=O)c3cc(NC(=O)[C@H](CCCNC(=N)N)NC(=O)c4cc(NC(=O)[C@@H](N)CCCNC(=N)N)ccc4OC)ccc3OC)ccc2OCC(=O)O)cc1C(N)=O [Compound 287] |  |  |  | 1000 (≈ 780 µM) |  | 1000 (≈ 780 µM) | no significant decrease | 50 | 30 |  |  |  |  | 
263 nM | 120 nM | 2400 nM | 67 nM | 0.153 | COc1ccc(NC(=O)[C@H](CCCCN)NC(=O)c2cc(NC(=O)[C@H](CCCCN)NC(=O)c3cc(NC(=O)[C@H](CCCCN)NC(=O)c4cc(NC(=O)[C@@H](N)CCCCN)ccc4OC)ccc3OC)ccc2OCC(=O)O)cc1C(=O)N[C@@H](Cc1c[nH]c2ccccc12)C(N)=O [Compound 348] |  | > 1000 | superior anti-fondaparinux activity | > 1000 | superior to protamine | > 1000 |  |  |  |  |  |  |  | 
 |  |  |  |  | protamine sulfate [reference compound] |  |  |  |  |  |  | >1000 µg/mL |  |  | >1000 | >1000 |  |  | 
3860 nM | 143 nM | 350 nM | 176 nM | 0.411 | COc1cc(OC)c(C(=O)N[C@H]2CC[C@@H](NC(=O)c3ccc(OCCCCCN)cc3OCCCCCN)CC2)cc1C(=O)N[C@H]1CC[C@@H](NC(=O)c2ccc(OCCCCCN)cc2OCCCCCN)CC1 [Compound 369] |  | > 1000 |  | 100 (≈ 97 µM) | superior to protamine | 280 (≈ 271 µM) |  |  |  |  |  |  |  | 
5980 nM and 6260 nM | 344 nM and 294 nM | 1530 nM and 2150 nM | 232 nM and 214 nM |  | COc1ccc(NC(=O)[C@H](CCCCN)NC(=O)c2cc(NC(=O)[C@H](CCCCN)NC(=O)c3cc(NC(=O)[C@H](CCCCN)NC(=O)c4cc(NC(=O)[C@@H](N)CCCCN)ccc4OC)ccc3OC)ccc2OC)cc1C(=O)NCCC(=O)O [Compound 261] |  |  |  | > 1000 |  | > 1000 |  |  |  |  |  | did not show an improved hemodynamic effect profile |  | 
208 nM | 119 nM | 720 nM | 115 nM | 0.292 | COC(=O)c1cccc(C(=O)N[C@@H](CCCCN)C(=O)Nc2ccc(OC)c(C(=O)N[C@@H](CCCCN)C(=O)Nc3ccc(OC)c(C(=O)N[C@@H](CCCCN)C(=O)Nc4ccc(OC)c(C(=O)N[C@@H](CCCCN)C(=O)Nc5ccc(OC)c(C(N)=O)c5)c4)c3)c2)c1 [Compound 340] |  |  |  | 1000 (≈ 776 µM) |  | 1000 (≈ 776 µM) |  | 60 | 60 |  |  |  |  | 
120 nM | 131 nM | 2270 nM | 137 nM | 0.301 | COc1ccc(NC(=O)[C@H](CCCNC(=N)N)NC(=O)c2cc(NC(=O)[C@H](CCCNC(=N)N)NC(=O)c3cc(NC(=O)[C@H](CCCNC(=N)N)NC(=O)c4cc(NC(=O)[C@@H](N)CCCNC(=N)N)ccc4OC)ccc3OC)ccc2OC)cc1C(=O)N[C@@H](Cc1c[nH]c2ccccc12)C(=O)O [Compound 309] |  | ~100 (≈ 70.1 µM) |  | 1000 (≈ 701 µM) |  | 1000 (≈ 701 µM) |  | 50 | 50 |  |  |  |  | 
91 nM and 63 nM | 79 nM and 91 nM | 1430 nM and 1220 nM | 133 nM and 84 nM |  | COc1cc(OC)c(C(=O)N[C@H]2CC[C@H](NC(=O)c3ccc(OCCCCCNC(=N)N)cc3OCCCCCNC(=N)N)CC2)cc1C(=O)N[C@H]1CC[C@H](NC(=O)c2ccc(OCCCCCNC(=N)N)cc2OCCCCCNC(=N)N)CC1 [Compound 336] |  | > 1000 | superior anti-fondaparinux activity | 390 (≈ 325 µM) |  | 505 (≈ 421 µM) |  |  |  |  |  |  | significant reductions in anti-Factor Xa activity | in vivo efficacy versus fondaparinux
1600 nM | 376 nM | 1250 nM | 352 nM | 0.179 | COc1ccc(NC(=O)[C@H](CCCCN)NC(=O)c2cc(NC(=O)[C@H](CCCCN)NC(=O)c3cc(NC(=O)[C@H](CCCCN)NC(=O)c4cc(NC(=O)[C@@H](N)CCCCN)ccc4OC)ccc3OC)ccc2OC)cc1C(=O)N[C@@H](Cc1ccccc1)C(=O)O [Compound 263] |  | > 1000 |  |  |  | 255 (≈ 200 µM) |  |  | 60 |  |  |  |  | 
